Values after ≈ are worked out from the molar mass of the structure shown. Read-outs that look alike come from different tables or passages of the source.
Legend:
[1] = target: Escherichia coli DNA gyrase A/B tetramer (Escherichia coli (strain K12), UniProt P0AES4+P0AES6); test: DNA gyrase supercoiling activity fluorescence polarisation assay; assay type: biochemical; settings: Eco Gyr FP Mean IC50, E. coli DNA gyrase supercoiling, 0.3 mM ATP
How it was run: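 IC50 derived by nonlinear regression from BODIPY-FL fluorescence anisotropy, read 60 min after quenching with labelled triplex-forming probe (pH 3.5). Reaction: 5 nM gyrase tetramer, 130 micrograms/mL relaxed plasmid, 0.3 mM ATP, 4 mM MgCl2, pH 7.5, typically 30 min at ambient temperature, 5-10 compound concentrations.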

Streptococcus pneumoniae = test: Susceptibility testing (MIC) Assay 1, broth microdilution; assay type: cell-based
Staphylococcus aureus = test: as above; assay type: cell-based; settings: Staphylococcus aureus
Streptococcus pyogenes = test: as above; assay type: cell-based; settings: Streptococcus pyogenes, Streptococcus pyrgenes, in vivo strain; read-out: Spy MIC
Escherichia coli = test: Susceptibility testing (MIC) Assay 2, broth microdilution; assay type: cell-based; settings: K12, read-out: Eco MIC
Haemophilus influenzae = test: as above; assay type: cell-based; settings: ATCC51907, Haemophilus influenzae, ATCC 51907, in vivo strain, read-out: Hin MIC
Pseudomonas aeruginosa = test: as above; assay type: cell-based; settings: PAO1, read-out: Pae MIC
Klebsiella pneumoniae = test: as above; assay type: cell-based; settings: clinical isolate, mucoid, read-out: Kpn MIC
[2] = in vivo strain (footnote b), read-out: Spn(b) MIC
[3] = in vivo strain (footnote c), read-out: Spn(c) MIC
[4] = Staphylococcus aureus in vivo strain, MSQS, read-out: Sau(d) MIC
[5] = in vivo strain, MRQR, read-out: Sau(e) MIC

Compound | IC50 [1] | MIC (Streptococcus pneumoniae; [2]) | MIC (Streptococcus pneumoniae; [3]) | MIC (Staphylococcus aureus; [4]) | MIC (Staphylococcus aureus; [5]) | MIC (Staphylococcus aureus; serum, read-out: Sau(f) MIC) | MIC (Streptococcus pyogenes) | MIC (Escherichia coli) | MIC (Haemophilus influenzae) | MIC (Pseudomonas aeruginosa) | MIC (Klebsiella pneumoniae)
C[C@@H]1CN2c3c(cc4c(N5C(=O)OC[C@@H]5c5ccncc5)noc4c3F)CC3(C(=O)NC(=O)NC3=O)[C@H]2[C@H](C)O1 [Example 58, (2R,4S,4aS)-11-fluoro-2,4-dimethyl-8-((S)-2-oxo-4-(pyridin-4-yl)oxazolidin-3-yl)-2,4,4a,6-tetrahydro-1H,1′H-spiro[isoxazolo[4,5-g][1,4]oxazino[4,3-a]quinoline-5,5′-pyrimidine]-2′,4′,6′(3′H)-trione] | 1500 nM | 50 µM (≈ 27.5 µg/mL) | 25 µM (≈ 13.8 µg/mL) | 12 µM (≈ 6.61 µg/mL) | 50 µM (≈ 27.5 µg/mL) | 50 µM (≈ 27.5 µg/mL) | 12 µM (≈ 6.61 µg/mL) | > 200 µM | 6.2 µM (≈ 3.41 µg/mL) | > 200 µM | > 200 µM
CO[C@H](C)[C@H]1COC(=O)N1c1noc2c(F)c3c(cc12)CC1(C(=O)NC(=O)NC1=O)[C@H]1[C@H](C)O[C@H](C)CN31 [Example 59] | 860 nM | 1.6 µM (≈ 0.85 µg/mL) | 1.6 µM (≈ 0.85 µg/mL) | 0.78 µM (≈ 0.415 µg/mL) | 1.6 µM (≈ 0.85 µg/mL) | 3.1 µM (≈ 1.65 µg/mL) | 1.6 µM (≈ 0.85 µg/mL) | 100 µM (≈ 53.1 µg/mL) | 1.6 µM (≈ 0.85 µg/mL) | > 200 µM | > 200 µM
CO[C@@H](C)[C@@H]1COC(=O)N1c1noc2c(F)c3c(cc12)CC1(C(=O)NC(=O)NC1=O)[C@H]1[C@H](C)O[C@H](C)CN31 [Example 60] | 950 nM | 1.6 µM (≈ 0.85 µg/mL) | 1.6 µM (≈ 0.85 µg/mL) | 0.78 µM (≈ 0.415 µg/mL) | 1.6 µM (≈ 0.85 µg/mL) | 1.6 µM (≈ 0.85 µg/mL) | 1.6 µM (≈ 0.85 µg/mL) | 100 µM (≈ 53.1 µg/mL) | 1.6 µM (≈ 0.85 µg/mL) | > 200 µM | > 200 µM
C[C@@H]1CN2c3c(cc4c(N5C(=O)OC[C@H]5c5cnccn5)noc4c3F)CC3(C(=O)NC(=O)NC3=O)[C@H]2[C@H](C)O1 [Example 61, (2R,4S,4aS)-11-Fluoro-2,4-dimethyl-8-((R)-2-oxo-4-(pyrazin-2-yl)oxazolidin-3-yl)-2,4,4a,6-tetrahydro-1H,1′H-spiro[isoxazolo[4,5-g][1,4]oxazino[4,3-a]quinoline-5,5′-pyrimidine]-2′,4′,6′(3′H)-trione] | 340 nM | 0.78 µM (≈ 0.43 µg/mL) | 0.78 µM (≈ 0.43 µg/mL) | 0.78 µM (≈ 0.43 µg/mL) | 3.1 µM (≈ 1.71 µg/mL) | 1.6 µM (≈ 0.882 µg/mL) | 0.78 µM (≈ 0.43 µg/mL) | 100 µM (≈ 55.1 µg/mL) | < 0.2 µM | > 200 µM | > 200 µM
C[C@@H]1CN2c3c(cc4c(N5C(=O)OC[C@@H]5c5cnccn5)noc4c3F)CC3(C(=O)NC(=O)NC3=O)[C@H]2[C@H](C)O1 [Example 62, (2R,4S,4aS)-11-fluoro-2,4-dimethyl-8-((S)-2-oxo-4-(pyrazin-2-yl)oxazolidin-3-yl)-2,4,4a,6-tetrahydro-1H,1′H-spiro[isoxazolo[4,5-g][1,4]oxazino[4,3-a]quinoline-5,5′-pyrimidine]-2′,4′,6′(3′H)-trione] | 1400 nM | 6.2 µM (≈ 3.42 µg/mL) | 3.1 µM (≈ 1.71 µg/mL) | 3.1 µM (≈ 1.71 µg/mL) | 6.2 µM (≈ 3.42 µg/mL) | 6.2 µM (≈ 3.42 µg/mL) | 3.1 µM (≈ 1.71 µg/mL) | > 200 µM | 3.1 µM (≈ 1.71 µg/mL) | > 200 µM | > 200 µM
C[C@@H]1CN2c3c(cc4c(N5C(=O)OC[C@H]5c5ncccn5)noc4c3F)CC3(C(=O)NC(=O)NC3=O)[C@H]2[C@H](C)O1 [Example 63, (2R,4S,4aS)-11-Fluoro-2,4-dimethyl-8-((R)-2-oxo-4-(pyrimidin-2-yl)oxazolidin-3-yl)-2,4,4a,6-tetrahydro-1H,1′H-spiro[isoxazolo[4,5-g][1,4]oxazino[4,3-a]quinoline-5,5′-pyrimidine]-2′,4′,6′(3′H)-trione] | 380 nM | 0.39 µM (≈ 0.215 µg/mL) | 0.39 µM (≈ 0.215 µg/mL) | 0.78 µM (≈ 0.43 µg/mL) | 3.1 µM (≈ 1.71 µg/mL) | > 200 µM | 0.39 µM (≈ 0.215 µg/mL) | 100 µM (≈ 55.1 µg/mL) | 0.39 µM (≈ 0.215 µg/mL) | > 200 µM | > 200 µM
